Reference: patent US20110257211A1, “Small-Molecule Choline Kinase Inhibitors as Anti-Cancer Therapeutics” (ADVANCED CANCER THERAPEUTICS, LLC, priority 2010, published 2011)

Tests used:
K562 = assay: Inhibition of cancer cell proliferation, Alamar Blue assay (K562); assay type: cell-based; settings: Homo sapiens, Table 2A, Alamar Blue, 72 hours exposure, read-out: IC50s K562
Protocol: (§1) The ability of the compounds described herein to kill or inhibit the proliferation of cancer cells was measured using the Alamar Blue assay using a 72 hours exposure. Results for different cancer cell lines are shown in, the Table 2 below (hematopoietic cell lines U937 and K562; MDA-MB-231 a breast cancer cell line; and NCI-H82 and Calu-6, two lung cancer cell lines): […]

MDA-MB-231 = assay: Inhibition of cancer cell proliferation, Alamar Blue assay (MDA-MB-231); assay type: cell-based; settings: Homo sapiens, Table 2A, Alamar Blue, 72 hours exposure, read-out: IC50s MDA-MB231
Protocol: as §1

U937 = assay: Inhibition of cancer cell proliferation, Alamar Blue assay (U937); assay type: cell-based; settings: Homo sapiens, U-937; Table 2A; Alamar Blue, 72 hours exposure; read-out: IC50s U937
Protocol: as §1

Calu-6 = assay: Inhibition of cancer cell proliferation, Alamar Blue assay (Calu-6); assay type: cell-based; settings: Homo sapiens, Table 2A, Alamar Blue, 72 hours exposure, read-out: IC50s Calu-6
Protocol: as §1

[1] = Microsomal stability in human liver microsomes; assay type: in vitro ADME
From the text: Microsomal stability in vitro in different biologic media and species is ascertained when screening compounds to evaluate the rate at which a compound undergoes metabolism.

NCI-H82 = assay: Inhibition of cancer cell proliferation, Alamar Blue assay (NCI-H82); assay type: cell-based; settings: Homo sapiens, Table 2A, Alamar Blue, 72 hours exposure, read-out: IC50s NCI-H82
Protocol: as §1

[2] = Pharmacokinetics in Balbc mice; assay type: in vivo; settings: IV, Balbc male mice, 5 mg/kg
Protocol: The pharmacokinetic parameters for several compounds listed above were determined in mice following IV (intravenous) or IP (intraperitoneal) administration. Briefly, six Balbc male mice 7 to 8 weeks old were used for each study. A dose of 5 mg/kg or 10 mg/kg was administered using a 5% DMSO/90% Captisol (20% in water) solution for ACT-CK-050 or FFF for ACT-CK-154. Blood samples were collected at different intervals. Plasma samples were extracted and analyzed using an LC-MS/MS method. Results are represented in FIGS. 1 and 2.

| IC50 (K562) [µM] | IC50 (MDA-MB-231) [µM] | % Metabolized (mean) [1] [%] | SMILES | other results |
| --- | --- | --- | --- | --- |
| 3.78 | 12 | – | CCOc1ccc(-c2nnc(SCC(=O)Nc3ccc(C)cc3C)[nH]2)cc1 [ACT-CK-097, N-(2,4-Dimethyl-phenyl)-2-[5-(4-ethoxy-phenyl)-4H-[1,2,4]triazol-3-ylsulfanyl]-acetamide] | – |
| 39.5 | 70.6 | – | CCOc1ccc(-c2nnc(SCC(=O)Nc3ccc(F)cc3F)[nH]2)cc1 [ACT-CK-064, N-(2,4-Difluoro-phenyl)-2-[5-(4-ethoxy-phenyl)-4H-[1,2,4]triazol-3-ylsulfanyl]-acetamide] | – |
| 8.86 | 10.6 | – | CCOc1ccc(-c2nnc(SCC(=O)Nc3ccc(OC)cc3C)[nH]2)cc1 [ACT-CK-087, 2-[5-(4-Ethoxy-phenyl)-4H-[1,2,4]triazol-3-ylsulfanyl]-N-(4-methoxy-2-methyl-phenyl)-acetamide] | – |
| 0.97 | 53 | 91 | CCOc1ccc(-c2nnc(SCC(=O)Nc3cc(C)cc(C)n3)[nH]2)cc1 [ACT-CK-147, N-(4,6-Dimethyl-pyridin-2-yl)-2-[5-(4-ethoxy-phenyl)-4H-[1,2,4]triazol-3-ylsulfanyl]-acetamide] | IC50 (U937): 0.63 µM; IC50 (Calu-6): 0.74 µM |
| – | – | 47 | CCOc1ccc(-c2nnc(SCC(=O)Nc3cc(C(F)(F)F)cc(C(F)(F)F)c3)[nH]2)cc1 [ACT-CK-152, N-(3,5-Bis-trifluoromethyl-phenyl)-2-[5-(4-ethoxy-phenyl)-4H-[1,2,4]triazol-3-ylsulfanyl]-acetamide] | – |
| – | – | 69 | Cc1cc(C)cc(NC(=O)CSc2nnc(-c3ccc(OCCO)cc3)[nH]2)c1 [ACT-CK-155, N-(3,5-Dimethyl-phenyl)-2-{5-[4-(2-hydroxy-ethoxy)-phenyl]-4H-[1,2,4]triazol-3-ylsulfanyl}-acetamide] | – |
| 0.8 | 2.6 | 99 | CCOc1ccc(-c2nnc(SCC(=O)Nc3cc(C)cc(C)c3)[nH]2)cc1F [ACT-CK-154, N-(3,5-Dimethyl-phenyl)-2-[5-(4-ethoxy-3-fluoro-phenyl)-4H-[1,2,4]triazol-3-ylsulfanyl]acetamide] | IC50 (U937): 0.02 µM; IC50 (NCI-H82): 0.16 µM; IC50 (Calu-6): 0.03 µM; Cmax [2]: 3639 ng/mL; T1/2b [2]: 9 min; Vd [2]: 1.66 L/kg |
| 41 | 79 | – | COc1cccc(-c2nnc(SCC(=O)Nc3cc(C)cc(C)c3)[nH]2)c1 [ACT-CK-140, N-(3,5-Dimethyl-phenyl)-2-[5-(3-methoxy-phenyl)-4H-[1,2,4]triazol-3-ylsulfanyl]-acetamide] | IC50 (U937): 20.4 µM; IC50 (Calu-6): 41.6 µM |
| 39 | 88 | – | CCOc1cccc(-c2nnc(SCC(=O)Nc3cc(C)cc(C)c3)[nH]2)c1 [ACT-CK-141, N-(3,5-Dimethyl-phenyl)-2-[5-(3-ethoxy-phenyl)-4H-[1,2,4]triazol-3-ylsulfanyl]-acetamide] | IC50 (U937): 49 µM; IC50 (Calu-6): 43 µM |
| 6.16 | 15.7 | – | CCOc1ccc(-c2nnc(SCC(=O)Nc3cc(OC)ccc3OC)[nH]2)cc1 [ACT-CK-093, N-(2,5-Dimethoxy-phenyl)-2-[5-(4-ethoxy-phenyl)-4H-[1,2,4]triazol-3-ylsulfanyl]-acetamide] | – |
| 3.27 | 7 | – | CCOc1ccc(-c2nnc(SCC(=O)Nc3cccc(C)c3)[nH]2)cc1 [ACT-CK-156, 2-[5-(4-Ethoxy-phenyl)-4H-[1,2,4]triazol-3-ylsulfanyl]-N-m-tolyl-acetamide] | IC50 (U937): 1.1 µM; IC50 (NCI-H82): 1.7 µM; IC50 (Calu-6): 1.7 µM |
| 23 | 16 | – | Cc1cc(C)cc(NC(=O)CSc2nnc(-c3cc4ccccc4[nH]3)[nH]2)c1 [ACT-CK-124, N-(3,5-Dimethyl-phenyl)-2-[5-(1H-indol-2-yl)-4H-[1,2,4]triazol-3-ylsulfanyl]-acetamide] | – |
| 14.6 | 21.2 | – | CCOc1ccc(-c2nnc(SCC(=O)Nc3cccc(C)c3C)[nH]2)cc1 [ACT-CK-076, N-(2,3-Dimethyl-phenyl)-2-[5-(4-ethoxy-phenyl)-4H-[1,2,4]triazol-3-ylsulfanyl]-acetamide] | – |
| 28.1 | > 100 | – | COc1ccc(-c2nnc(SCC(=O)Nc3c(F)cccc3F)[nH]2)cc1 [ACT-CK-061, N-(2,6-Difluoro-phenyl)-2-[5-(4-methoxy-phenyl)-4H-[1,2,4]triazol-3-ylsulfanyl]-acetamide] | – |
| – | – | 91 | CCOc1ccc(-c2nnc(SCC(=O)Nc3cc(C)nc(C)c3)[nH]2)cc1 [ACT-CK-151, N-(2,6-Dimethyl-pyridin-4-yl)-2-[5-(4-ethoxy-phenyl)-4H-[1,2,4]triazol-3-ylsulfanyl]-acetamide] | – |
| 31.7 | 91 | 85 | Cc1cc(C)cc(NC(=O)CSc2nnc(-c3ccc(O)cc3)[nH]2)c1 [ACT-CK-146, N-(3,5-Dimethyl-phenyl)-2-[5-(4-hydroxy-phenyl)-4H-[1,2,4]triazol-3-ylsulfanyl]-acetamide] | IC50 (U937): 34.1 µM; IC50 (Calu-6): 54 µM |
| 4.4 | 16.3 | – | COc1ccc(-c2nnc(SCC(=O)Nc3cc(C)ccc3F)[nH]2)cc1 [ACT-CK-085, N-(2-Fluoro-5-methyl-phenyl)-2-[5-(4-methoxy-phenyl)-4H-[1,2,4]triazol-3-ylsulfanyl]-acetamide] | – |
| 1.6 | 19.2 | – | CCOc1ccc(-c2nnc(SCC(=O)Nc3cc(F)ccc3C)[nH]2)cc1 [ACT-CK-067, 2-[5-(4-Ethoxy-phenyl)-4H-[1,2,4]triazol-3-ylsulfanyl]-N-(5-fluoro-2-methyl-phenyl)-acetamide] | – |
| 43 | 9 | – | CCCOc1ccc(-c2nnc(SCC(=O)Nc3cc(C)ccc3F)[nH]2)cc1 [ACT-CK-120, N-(2-Fluoro-5-methyl-phenyl)-2-[5-(4-propoxy-phenyl)-4H-[1,2,4]triazol-3-ylsulfanyl]-acetamide] | – |
| 0.12 | 50 | 99 | CCOc1ccc(-c2nnc(SCC(=O)Nc3cc(C)cc(C)c3)[nH]2)cc1C [ACT-CK-142, N-(3,5-Dimethyl-phenyl)-2-[5-(4-ethoxy-3-methyl-phenyl)-4H-[1,2,4]triazol-3-ylsulfanyl]-acetamide] | IC50 (U937): 0.035 µM; IC50 (Calu-6): 0.09 µM |
| 11.4 | 76.2 | – | COc1ccc(-c2nnc(SCC(=O)Nc3cc(F)ccc3C)[nH]2)cc1 [ACT-CK-066, N-(5-Fluoro-2-methyl-phenyl)-2-[5-(4-methoxy-phenyl)-4H-[1,2,4]triazol-3-ylsulfanyl]-acetamide] | – |
| 0.81 | 40.2 | – | CCOc1ccc(-c2nnc(SCC(=O)Nc3cc(C)ccc3F)[nH]2)cc1 [ACT-CK-071, 2-[5-(4-Ethoxy-phenyl)-4H-[1,2,4]triazol-3-ylsulfanyl]-N-(2-fluoro-5-methyl-phenyl)-acetamide] | – |
| 1.4 | 5.6 | – | CCCOc1ccc(-c2nnc(SCC(=O)Nc3cc(C)cc(C)c3)[nH]2)cc1 [ACT-CK-118, N-(3,5-Dimethyl-phenyl)-2-[5-(4-propoxy-phenyl)-4H-[1,2,4]triazol-3-ylsulfanyl]-acetamide] | – |
| – | – | 34 | CCOc1ccc(-c2nnc(SCC(=O)Nc3cc(C)cc(C)c3)[nH]2)cn1 [ACT-CK-143, N-(3,5-Dimethyl-phenyl)-2-[5-(6-ethoxy-pyridin-3-yl)-4H-[1,2,4]triazol-3-ylsulfanyl]-acetamide] | – |
| 34 | 149 | – | COc1ccc(-c2nnc(SCC(=O)Nc3ccc(C)cc3C)[nH]2)cc1 [ACT-CK-096] | – |
| 28 | 11 | – | CCCOc1ccc(-c2nnc(SCC(=O)Nc3cc(OC)cc(OC)c3)[nH]2)cc1 [ACT-CK-119, N-(3,5-Dimethoxy-phenyl)-2-[5-(4-propoxy-phenyl)-4H-[1,2,4]triazol-3-ylsulfanyl]-acetamide] | – |
| 0.72 | 29 | 54 | CCOc1ccc(-c2nnc(SCC(=O)Nc3nc(C)cc(C)n3)[nH]2)cc1 [ACT-CK-148, N-(4,6-Dimethyl-pyrimidin-2-yl)-2-[5-(4-ethoxy-phenyl)-4H-[1,2,4]triazol-3-ylsulfanyl]-acetamide] | IC50 (U937): 0.5 µM; IC50 (NCI-H82): 8.1 µM; IC50 (Calu-6): 0.47 µM |
| 32.1 | 68.2 | – | COc1ccc(-c2nnc(SCC(=O)Nc3cccc(C)c3C)[nH]2)cc1 [ACT-CK-070, N-(2,3-Dimethyl-phenyl)-2-[5-(4-methoxy-phenyl)-4H-[1,2,4]triazol-3-ylsulfanyl]-acetamide] | – |
